Source: article PMC7913925, “Design and Evaluation of a Polypeptide That Mimics the Integrin Binding Site for EDA Fibronectin to Block Profibrotic Cell Activity” (International Journal of Molecular Sciences, 2021)
Bridges are numbered along the chain shown (N, C = ends). Where no end group is shown, it is not given here.

Legend:
pro-MMP9 = assay: Gelatinase zymography pro-MMP9; assay type: cell-based, mouse; details: 48 h, TGF-β1 10 ng/mL, AF38Pep 10 µg/mL, conditioned medium
Method: Conditioned media were collected from cells incubated with serum-free medium (SFM) alone, SFM containing 10 ng/mL TGF-β1, SFM containing 10 µg/mL AF38Pep, or SFM containing both 10 ng/mL TGF-β1 and 10 µg/mL AF38Pep. Conditioned medium was concentrated 10× by filtrating spin columns (Amicon Ultra-4 10 kDa MWCO, Merck Millipore) and protein was quantified by Micro BCA Protein Assay Kit (Thermo Fisher Scientific). A 1.5 mm thick 10% nonreducing acrylamide gel containing gelatin was prepared and 10 µg of sample in 5 × nonreducing buffer was loaded into the gel lanes. The gel was run at 100 V until the protein entered the stacking gel layer, then the voltage was increased to 150 V until the marker achieved resolved band separation. The gels were then washed twice for 30 min using wash buffer to remove SDS and renature the enzymes. Gels were further rinsed for 5–10 min in incubation buffer at 37 °C with agitation to activate the gelatinase reaction. Fresh incubation buffer was added, and the gels were incubated overnight at 37 °C. Gels were stained with staining solution containing Coomassie blue for between 30 min to 1 h, before rinsing with ddH2O and subsequent incubation with de-stain solution until bands could be observed. The gels were transferred to 2% acetic acid and rehydrated overnight for imaging by scanner.

[1] = test system: human HFL1 lung fibroblast cells, α-SMA mRNA; assay: α-SMA mRNA expression (qRT-PCR) in TGF-β1-treated HFL1; assay type: cell-based
Method: HFL1 cells were cultured in Kaighn’s modified Ham’s F-12 (F-12K) medium (Sigma-Aldrich) containing NaHCO3 and HEPES buffered to pH 7. Cells were grown to confluence in T75 culture flasks in the presence of 10% fetal bovine serum (FBS; Gibco, Thermo Fisher Scientific, Waltham, MA, USA). HFL1 cells were subcultured using 0.05% trypsin at a ratio of 1:3. NIH/3T3 cells were cultured in Dulbecco’s Modified Eagle Medium (DMEM; HyClone, Thermo Fisher Scientific) containing 100 U/mL penicillin and 100 μg/mL streptomycin. Cells were grown to confluence in T75 culture flasks in the presence of 10% FBS. NIH/3T3 cells were subcultured using 0.05% trypsin/EDTA at a ratio of 1:3. All cells were maintained at 37 °C and 5% CO2, and growth medium was replenished every 3 days until experimentation. Cells were growth-arrested in serum-free medium for 48 h before experiments, and all experiments were performed under serum-free conditions using cells between passages 3 and 8.
Reverse transcription (RT) and real-time quantitative PCR (qRT-PCR) were used to assess ACTA2/Acta2, Col1a1, Col3a1, Fn1, Eda-Fn1, Mmp9, Tgfb1, Ltbp1, Hic5, and Mrtfa mRNA expressions. Custom PCR primers were designed in-house (Table 2) and then synthesized by BGI (Beijing, China). […]

OPN–ITGA4 interaction = assay: Co-IP of OPN with ITGA4; assay type: cell-based; details: 48 h, Co-IP with anti-ITGA4
Method: Total protein was extracted from cells in RIPA lysis buffer containing 1% protease inhibitor cocktail, 1% phenylmethylsulfonyl fluoride, and 1% sodium orthovanadate (Santa Cruz Biotechnology, Santa Cruz, CA, USA). Protein was quantified by Micro BCA Protein Assay Kit (Thermo Fisher Scientific) before 7.5% SDS-PAGE and transfer to nitrocellulose. Membranes were blocked with 5% bovine serum albumin (BSA; Sigma-Aldrich)/0.5% Tween-20 (Sigma-Aldrich)/PBS for 1 h, RT, followed by incubation with primary antibodies diluted in 1% BSA/0.1% Tween-20/PBS, overnight at 4 °C. Primary antibodies were: anti-phosphoY204/Y187 ERK1/2 (1:1000); anti-ERK1/2 (1:1000); anti-phosphoY861 FAK (1:1000); anti-FAK (1:2000). Immunoblotting for anti-GAPDH (1:2500) was used as a protein loading control. Following wash steps, membranes were incubated in goat anti-rabbit IgG H&L secondary antibody (horseradish peroxidase, HRP conjugate, […]) (Abcam; 1:5000 dilution, 1% BSA/0.1% Tween-20/PBS). Detection was performed using Immobilon reagent (Merck Millipore, Burlington, MA, USA) and imaged using a Tanon 5500 Chemiluminescent Imaging System (Tanon, Shanghai, China).
A volume of 25 µg total protein from cell lysate in nondenaturing lysis buffer containing protease inhibitors was immunoprecipitated (IP) using anti-ITGA4 antibodies linked to protein A/G sepharose beads (Abcam). […]

Question: Which pro-MMP9 gelatinase activity (pro-MMP9) does the source give for “VMPYISTTPAKPCTSENCGNSWYGGFKSKNENKIYFIN (disulfide 13-18 (inferred)) [AF38Pep]” here?
Answer: suppressed activity levels

Question: What about the “attenuation of TGF-β1-induced α-SMA mRNA” value ([1]; HFL1, 48 h, 0.1–10 µg/mL) of the same sequence?
Answer: significantly reduced by 0.1–10 µg/mL peptide at 48 h

Question: And the “attenuation of TGF-β1-induced α-SMA mRNA” value ([1]; HFL1, 72 h, 10 µg/mL)?
Answer: only 10 µg/mL was sufficient for inhibition of expression at 72 h

Question: What about the “OPN–ITGA4 binding” value (OPN–ITGA4 interaction) of the same sequence?
Answer: did not influence OPN–ITGA4 binding
